Target: Kynurenine/alpha-aminoadipate aminotransferase, mitochondrial (Homo sapiens, UniProt Q8N5Z0)
Experiment: Inhibition Spectra Assay : Formation of kynurenic acid (KYNA) is indirectly assessed by a decrease in light absorbance at 370 nm (OD370) as the L-kynurenine (KYN) substrate is converted by the human KAT II (hKAT II) enzyme into KYNA.

Sequence of Kynurenine/alpha-aminoadipate aminotransferase, mitochondrial (Q8N5Z0 whole entry): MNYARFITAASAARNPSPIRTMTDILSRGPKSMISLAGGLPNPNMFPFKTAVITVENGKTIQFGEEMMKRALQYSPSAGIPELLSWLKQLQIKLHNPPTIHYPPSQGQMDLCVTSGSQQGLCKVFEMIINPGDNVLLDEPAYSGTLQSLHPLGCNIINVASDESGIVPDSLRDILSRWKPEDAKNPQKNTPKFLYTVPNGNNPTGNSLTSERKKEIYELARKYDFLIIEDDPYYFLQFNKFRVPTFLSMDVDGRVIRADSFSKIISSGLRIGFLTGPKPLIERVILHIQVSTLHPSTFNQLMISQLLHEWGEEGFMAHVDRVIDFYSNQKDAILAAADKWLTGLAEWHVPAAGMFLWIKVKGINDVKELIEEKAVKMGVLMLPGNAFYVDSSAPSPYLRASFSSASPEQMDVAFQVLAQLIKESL

- IC50: 85 nM
SMILES: NC1Cc2nn(-c3ccccc3)cc2N(O)C1=O (stereo unspecified)
